Experiment [1] addresses T1, human LXRα (Homo sapiens, UniProt Q13133).
T1 construct: biotin (biotinylated; biotinylation tag not described); made in house; host or cells: E. coli
T1 sequence (Q13133 1-447): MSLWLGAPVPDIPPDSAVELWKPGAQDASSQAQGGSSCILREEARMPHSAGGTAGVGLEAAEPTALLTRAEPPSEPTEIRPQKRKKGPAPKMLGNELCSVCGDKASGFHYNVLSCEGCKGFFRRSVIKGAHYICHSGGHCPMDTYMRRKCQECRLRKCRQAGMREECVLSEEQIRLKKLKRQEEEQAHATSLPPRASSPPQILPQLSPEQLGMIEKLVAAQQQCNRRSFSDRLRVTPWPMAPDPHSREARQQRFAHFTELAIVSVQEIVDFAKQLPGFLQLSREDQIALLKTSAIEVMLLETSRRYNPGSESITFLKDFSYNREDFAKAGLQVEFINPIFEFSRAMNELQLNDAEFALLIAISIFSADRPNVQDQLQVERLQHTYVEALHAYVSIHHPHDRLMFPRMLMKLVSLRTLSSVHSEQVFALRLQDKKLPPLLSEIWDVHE
The experiment can be described thus: Ligand-binding test procedure for human LXRα (3H T0901317 competition, flash plates). The conditions noted are these: biotinylated hLXRα, tracer 3H T0901317. Summed up:
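Competition binding of test ligands against 5 nM ³H tracer solution (pre-mix concentration) on biotinylated hLXRα from E. coli extract, captured on streptavidin flash plates (Bmax ~4000 cpm). Ligand dilution series made in DMSO. Incubated overnight at +4 °C; bound radioactivity counted after washing.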

In experiment [2] the target is T2, human LXRβ (Homo sapiens, UniProt P55055).
T2 construct: biotin (biotinylated; biotinylation tag not described); made in house; host or cells: E. coli
T2 sequence (P55055 1-460): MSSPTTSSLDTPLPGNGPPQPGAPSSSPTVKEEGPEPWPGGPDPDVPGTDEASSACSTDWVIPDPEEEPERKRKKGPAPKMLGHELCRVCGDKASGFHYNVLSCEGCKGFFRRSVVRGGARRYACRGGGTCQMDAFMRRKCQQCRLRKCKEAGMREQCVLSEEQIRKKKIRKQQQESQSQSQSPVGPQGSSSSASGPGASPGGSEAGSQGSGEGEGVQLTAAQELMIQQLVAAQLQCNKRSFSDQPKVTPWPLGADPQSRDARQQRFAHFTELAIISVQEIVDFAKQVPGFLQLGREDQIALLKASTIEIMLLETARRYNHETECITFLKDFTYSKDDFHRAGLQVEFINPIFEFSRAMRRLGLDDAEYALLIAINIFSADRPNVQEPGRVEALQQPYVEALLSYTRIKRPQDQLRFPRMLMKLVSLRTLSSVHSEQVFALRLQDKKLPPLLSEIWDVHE
The experiment can be described thus: Ligand-binding test procedure for human LXRβ (3H T0901317 competition, flash plates). The conditions noted are these: for Binding ratio a/b: IC50 (μM) LXRα binding/IC50 (μM) LXRβ binding; for IC50: biotinylated hLXRβ, tracer 3H T0901317.

One may read the IC50 as the concentration at which inhibition is half-maximal. Consider `CC(C)C[C@H](NC(=O)c1cccc(COc2cccc(-c3c(Cc4ccccc4)cnc4c(C(F)(F)F)cccc34)c2)c1)C(=O)O` [Example 96, N-[3-({3-[3-benzyl-8-(trifluoromethyl)quinolin-4-yl]phenoxy}methyl)benzoyl]leucine], for which the IC50 in experiment [1] amounted to 1160 nM. Moreover, in experiment [2], the Binding ratio a/b is reported as 2 and the IC50 was determined as 546 nM.

Compound `O=C(O)c1ccccc1NCc1cccc(-c2c(Cc3ccccc3)cnc3c(C(F)(F)F)cccc23)c1` [Example 97, 2-({3-[3-benzyl-8-(trifluoromethyl)quinolin-4-yl]benzyl}amino)benzoic acid] displayed a half-inhibitory concentration (IC50) in experiment [1] of 493 nM. Further, in experiment [2], the Binding ratio a/b is given as 2 and the concentration for half-maximal inhibition (IC50) was 237 nM.

In turn, `COc1ccc(C(=O)O)cc1OCc1cccc(-c2c(Cc3ccccc3)cnc3c(C(F)(F)F)cccc23)c1` [Example 98, 3-({3-[3-benzyl-8-(trifluoromethyl)quinolin-4-yl]benzyl}oxy)-4-methoxybenzoic acid] yielded an IC50 in experiment [1] of 5200 nM. Moreover, in experiment [2], the Binding ratio a/b worked out at 2 and the half-inhibitory concentration (IC50) worked out at 2500 nM.

As for `O=C(O)c1c[nH]c2ccc(NCc3cccc(-c4c(Cc5ccccc5)cnc5c(C(F)(F)F)cccc45)c3)cc12` [Example 99, 5-({3-[3-benzyl-8-(trifluoromethyl)quinolin-4-yl]benzyl}amino)-1H-indole-3-carboxylic acid], the IC50 in experiment [1] was 1240 nM. In addition, in experiment [2], the Binding ratio a/b is listed as 2 and the half-inhibitory concentration (IC50) came to 620 nM.

`O=C(O)c1ccc(COc2cccc(-c3c(Cc4ccccc4)cnc4c(C(F)(F)F)cccc34)c2)cc1` [Example 100, 4-({3-[3-benzyl-8-(trifluoromethyl)quinolin-4-yl]phenoxy}methyl)benzoic acid]: the IC50 in experiment [1] came out at 103 nM; in experiment [2], 53 nM. Further, the Binding ratio a/b in experiment [2] is given as 2.

`O=C(O)c1ccc(NCc2cccc(-c3c(Cc4ccccc4)cnc4c(C(F)(F)F)cccc34)c2)cc1` [Example 101, 4-({3-[3-benzyl-8-(trifluoromethyl)quinolin-4-yl]benzyl}amino)benzoic acid] yielded an IC50 in experiment [1] of 354 nM. Also, in experiment [2], the Binding ratio a/b was 2 and the IC50 worked out at 183 nM.

On to `Cc1ccc(OCc2cccc(-c3c(Cc4ccccc4)cnc4c(C(F)(F)F)cccc34)c2)c(C(=O)O)c1` [Example 102, 2-({3-[3-benzyl-8-(trifluoromethyl)quinolin-4-yl]benzyl}oxy)-5-methylbenzoic acid], for which the 50% inhibitory concentration (IC50) in experiment [1] worked out at 4760 nM. Moreover, in experiment [2], the Binding ratio a/b came out at 2 and the IC50 amounted to 2820 nM.

In experiment [1], `Cc1c(NCc2cccc(-c3c(Cc4ccccc4)cnc4c(C(F)(F)F)cccc34)c2)ccc(C(=O)O)c1C` [Example 103, 4-({3-[3-benzyl-8-(trifluoromethyl)quinolin-4-yl]benzyl}amino)-2,3-dimethylbenzoic acid] yielded an IC50 of 5040 nM. In experiment [2], the Binding ratio a/b is reported as 2 and the IC50 was determined as 3300 nM.

In the case of `O=C(O)c1cc(F)ccc1OCc1cccc(-c2c(Cc3ccccc3)cnc3c(C(F)(F)F)cccc23)c1` [Example 104, 2-({3-[3-benzyl-8-(trifluoromethyl)quinolin-4-yl]benzyl}oxy)-5-fluorobenzoic acid], in experiment [1], the IC50 amounted to 3200 nM. Also, in experiment [2], the Binding ratio a/b came out at 1 and the IC50 is 2150 nM.

As for `Cn1c(C(=O)O)cc2cccc(NCc3cccc(-c4c(Cc5ccccc5)cnc5c(C(F)(F)F)cccc45)c3)c21` [Example 105, 7-({3-[3-benzyl-8-(trifluoromethyl)quinolin-4-yl]benzyl}amino)-1-methyl-1H-indole-2-carboxylic acid], the IC50 came to 185 nM in experiment [1] and 129 nM in experiment [2]. For the same compound, the Binding ratio a/b in experiment [2] amounted to 1.

Regarding `Cc1cnc2c(C(F)(F)F)cccc2c1-c1cccc(CNc2cc(F)ccc2C(=O)O)c1` [Example 106, 4-fluoro-2-({3-[3-methyl-8-(trifluoromethyl)quinolin-4-yl]benzyl}amino)benzoic acid], the values for the IC50 in experiment [1] and in experiment [2] were 7280 nM and 5290 nM, respectively. In experiment [2], the Binding ratio a/b amounted to 1.

Consider `O=C(O)Cc1cccc2ccc(OCc3cccc(-c4ccnc5c(C(F)(F)F)cccc45)c3)cc12` [Example 107, [7-({3-[8-(trifluoromethyl)quinolin-4-yl]benzyl}oxy)-1-naphthyl]acetic acid], for which the IC50 in experiment [1] stood at 7380 nM. Besides, in experiment [2], the Binding ratio a/b is given as 1 and the 50% inhibitory concentration (IC50) is 5540 nM.

With `Cc1c(C(=O)O)cc(Br)c(NCc2cccc(-c3c(Cc4ccccc4)cnc4c(C(F)(F)F)cccc34)c2)c1C` [Example 108, 4-({3-[3-benzyl-8-(trifluoromethyl)quinolin-4-yl]benzyl}amino)-5-bromo-2,3-dimethylbenzoic acid], in experiment [1], the IC50 was 3620 nM. Further, in experiment [2], the Binding ratio a/b is reported as 1 and the IC50 stood at 2730 nM.

For the compound `O=C(O)c1cc2ccccc2cc1OCc1cccc(-c2c(Cc3ccccc3)cnc3c(C(F)(F)F)cccc23)c1` [Example 109, 3-({3-[3-benzyl-8-(trifluoromethyl)quinolin-4-yl]benzyl}oxy)-2-naphthoic acid], the 50% inhibitory concentration (IC50) in experiment [1] worked out at 3590 nM; in experiment [2], 2730 nM. Further, the Binding ratio a/b in experiment [2] is given as 1.

In experiment [1], `O=C(O)c1ccc(NCc2cccc(-c3c(Cc4ccccc4)cnc4c(C(F)(F)F)cccc34)c2)c(OC(F)(F)F)c1` [Example 110, 4-({3-[3-benzyl-8-(trifluoromethyl)quinolin-4-yl]benzyl}amino)-3-(trifluoromethoxy)benzoic acid] returned a 50% inhibitory concentration (IC50) of 2040 nM. For the same compound, in experiment [2], the Binding ratio a/b worked out at 1 and the IC50 stood at 1580 nM.

As to `O=C(O)c1c(Cl)cccc1NCc1cccc(-c2c(Cc3ccccc3)cnc3c(C(F)(F)F)cccc23)c1` [Example 111, 2-({3-[3-benzyl-8-(trifluoromethyl)quinolin-4-yl]benzyl}amino)-6-chlorobenzoic acid], the IC50 in experiment [1] worked out at 874 nM; in experiment [2] it was 709 nM. Further, the Binding ratio a/b in experiment [2] was 1.

On to `O=C(O)c1cc(F)ccc1NCc1cccc(-c2c(Cc3ccccc3)cnc3c(C(F)(F)F)cccc23)c1` [Example 112, 2-({3-[3-benzyl-8-(trifluoromethyl)quinolin-4-yl]benzyl}amino)-5-fluorobenzoic acid], for which the half-maximal inhibitory concentration (IC50) in experiment [1] was 517 nM. In experiment [2], the Binding ratio a/b was determined as 1 and the IC50 was 464 nM.

For `O=C(O)c1ccc(COc2cccc(-c3c(Cc4ccccc4)cnc4c(C(F)(F)F)cccc34)c2)c(Cl)c1` [Example 113, 4-({3-[3-benzyl-8-(trifluoromethyl)quinolin-4-yl]phenoxy}methyl)-3-chlorobenzoic acid], the results for the half-maximal inhibitory concentration (IC50) in experiment [1] and in experiment [2] were 1720 nM and 1560 nM, respectively. Also, the Binding ratio a/b in experiment [2] turned out to be 1.

In the case of `O=C(O)Cc1ccc2cccc(OCc3cccc(-c4c(Cc5ccccc5)cnc5c(C(F)(F)F)cccc45)c3)c2c1` [Example 114, [8-({3-[3-benzyl-8-(trifluoromethyl)quinolin-4-yl]benzyl}oxy)-2-naphthyl]acetic acid], the IC50 in experiment [1] was 1290 nM. In addition, in experiment [2], the Binding ratio a/b was found to be 1 and the IC50 was determined as 1190 nM.

Turning to `Cc1cnc2c(C(F)(F)F)cccc2c1-c1cccc(CNc2cccc(F)c2C(=O)O)c1` [Example 115, 2-fluoro-6-({3-[3-methyl-8-(trifluoromethyl)quinolin-4-yl]benzyl}amino)benzoic acid], the half-maximal inhibitory concentration (IC50) in experiment [1] was determined as 10700 nM. Moreover, in experiment [2], the Binding ratio a/b was determined as 1 and the IC50 was determined as 10300 nM.

In the case of `O=C(O)Cc1cccc2c(NCc3cncc(-c4ccnc5c(C(F)(F)F)cccc45)c3)cccc12` [Example 116, {5-[({5-[8-(trifluoromethyl)quinolin-4-yl]pyridin-3-yl}methyl)amino]-1-naphthyl}acetic acid], the concentration for half-maximal inhibition (IC50) is over 10000 nM in experiment [1] and 15700 nM in experiment [2].

As to `Cc1cc(NCc2cncc(-c3c(C)cnc4c(C(F)(F)F)cccc34)c2)c(C)cc1CC(=O)O` [Example 117, {2,5-dimethyl-4-[({5-[3-methyl-8-(trifluoromethyl)quinolin-4-yl]pyridin-3-yl}methyl)amino]phenyl}acetic acid], the IC50 in experiment [1] is over 1000 nM; in experiment [2] it was 2520 nM.

As for `O=C(O)Cc1cccc2c(OCc3cncc(-c4ccnc5c(C(F)(F)F)cccc45)c3)cccc12` [Example 118, [5-({5-[8-(trifluoromethyl)quinolin-4-yl]pyridin-3-yl}methoxy)-1-naphthyl]acetic acid], the half-maximal inhibitory concentration (IC50) in experiment [1] was over 1000 nM; in experiment [2], 3740 nM.

The record behind these values is patent US20090069373A1, “Quinoline Acids” (Wyeth, priority 2007, published 2009).
